Calls of active or inactive are those of the source. The rule behind the calls is not given here.
How the values were obtained:
[1] = Protein binding in human serum at 1 ug/ml after 4 hrs by equilibrium dialysis method; assay type: ADME, cell-free; conditions: read-out: PB (converted)
[2] = Drug metabolism in Sprague-Dawley rat hepatocytes assessed as oxidative metabolism at 1 uM after 1 hr by LC-MS/MS method; assay type: ADME, cell-based, Hepatocyte; conditions: read-out: Drug metabolism
[3] = Protein binding in Sprague-Dawley rat serum at 1 ug/ml after 4 hrs by equilibrium dialysis method; assay type: ADME, cell-free; conditions: read-out: PB (converted)
Mus musculus [4] = experiment: In vivo inhibition of PHD2 in Balb/c mouse assessed as EPO levels in serum at 40 mg/kg, po after 6 hrs by ELISA; assay type: functional
[5] = Effective half life in Sprague-Dawley rat at 1 mg/kg, iv; assay type: ADME, organism-based; conditions: in vivo, read-out: t1/2eff (converted)
[6] = Tmax in Sprague-Dawley rat at 10 mg/kg, po by LC-MS/MS method; assay type: ADME, organism-based; conditions: in vivo
[7] = Oral bioavailability in Sprague-Dawley rat at 10 mg/kg by LC-MS/MS method; assay type: ADME, organism-based; conditions: in vivo
[8] = Half life in Sprague-Dawley rat at 1 mg/kg, iv by LC-MS/MS method; assay type: ADME, organism-based; conditions: in vivo
[9] = Cmax in beagle dog at 5 mg/kg, po by LC-MS/MS method; assay type: ADME, organism-based, Canis lupus familiaris; design: dose 5 mg/kg, route oral; conditions: in vivo
[10] = Half life in beagle dog at 5 mg/kg, po by LC-MS/MS method; assay type: ADME, organism-based, Canis lupus familiaris; conditions: in vivo
[11] = Oral bioavailability in beagle dog at 5 mg/kg by LC-MS/MS method; assay type: ADME, organism-based, Canis lupus familiaris; conditions: in vivo
[12] = Cmax in Sprague-Dawley rat at 10 mg/kg, po by LC-MS/MS method; assay type: ADME, organism-based; design: dose 10 mg/kg, route oral; conditions: in vivo
[13] = Total clearance in Sprague-Dawley rat at 1 mg/kg, iv by LC-MS/MS method; assay type: ADME, organism-based; conditions: in vivo
[14] = Volume of distribution at steady state in beagle dog at 1 mg/kg, iv by LC-MS/MS method; assay type: ADME, organism-based, Canis lupus familiaris; conditions: in vivo, read-out: Vdss
Egl nine homolog 1 = Egl nine homolog 1 (Rattus norvegicus, UniProt P59722); experiment: Inhibition of rat PHD2 using FITC-HIF1-alpha as substrate after 10 mins in presence of 2-oxoglutarate by fluorescence polarization assay
[15] = Half life in Sprague-Dawley rat at 10 mg/kg, po by LC-MS/MS method; assay type: ADME, organism-based; conditions: in vivo
Rattus norvegicus [16] = experiment: In vivo inhibition of PHD2 in Sprague-Dawley rat assessed as EPO levels in serum at 40 mg/kg, po after 8 hrs by ELISA; assay type: functional
[17] = Volume of distribution at steady state in Sprague-Dawley rat at 1 mg/kg, iv by LC-MS/MS method; assay type: ADME, organism-based; conditions: in vivo, read-out: Vdss
[18] = Total clearance in beagle dog at 1 mg/kg, iv by LC-MS/MS method; assay type: ADME, organism-based, Canis lupus familiaris; conditions: in vivo
[19] = Tmax in beagle dog at 5 mg/kg, po by LC-MS/MS method; assay type: ADME, organism-based, Canis lupus familiaris; conditions: in vivo
[20] = Half life in beagle dog at 1 mg/kg, iv by LC-MS/MS method; assay type: ADME, organism-based, Canis lupus familiaris; conditions: in vivo
Homo sapiens = experiment: Terminal half life in patient with hepatic impairment at 100 mg, po; assay type: ADME, organism-based; conditions: in vivo
[21] = Protein binding in human plasma at 0.3 ug/ml after 8 hrs by equilibrium dialysis method; assay type: ADME, cell-free; conditions: read-out: PPB (converted)
[22] = Drug metabolism in beagle dog hepatocytes assessed as oxidative metabolism at 1 uM after 4 hrs by LC-MS/MS method; assay type: ADME, cell-based, Canis lupus familiaris, Hepatocyte; conditions: read-out: Drug metabolism
[23] = Protein binding in Sprague-Dawley rat plasma at 0.3 ug/ml after 8 hrs by equilibrium dialysis method; assay type: ADME, cell-free; conditions: read-out: PPB (converted)
[24] = Drug metabolism in human hepatocytes assessed as oxidative metabolism at 1 uM after 4 hrs by LC-MS/MS method; assay type: ADME, cell-based, Hepatocyte; conditions: read-out: Drug metabolism
[25] = Drug metabolism in Sprague-Dawley rat hepatocytes assessed as oxidative metabolism at 1 uM after 4 hrs by LC-MS/MS method; assay type: ADME, cell-based, Hepatocyte; conditions: read-out: Drug metabolism
[26] = Protein binding in beagle dog plasma at 0.3 ug/ml after 8 hrs by equilibrium dialysis method; assay type: ADME, cell-free, Canis lupus familiaris; conditions: read-out: PPB (converted)
[27] = Half life in patient administered as qd; assay type: ADME, organism-based; conditions: human, in vivo
Rattus norvegicus [28] = experiment: In vivo inhibition of PHD2 in Sprague-Dawley rat assessed as increase in EPO levels in serum at 100 mg/kg, po after 6 hrs by ELISA; assay type: functional, organism-based
Mus musculus [29] = experiment: In vivo inhibition of PHD2 in Balb/c mouse assessed as EPO levels in serum at 100 mg/kg, po after 6 hrs by ELISA; assay type: functional

Sequence of Egl nine homolog 1 (P59722 whole entry): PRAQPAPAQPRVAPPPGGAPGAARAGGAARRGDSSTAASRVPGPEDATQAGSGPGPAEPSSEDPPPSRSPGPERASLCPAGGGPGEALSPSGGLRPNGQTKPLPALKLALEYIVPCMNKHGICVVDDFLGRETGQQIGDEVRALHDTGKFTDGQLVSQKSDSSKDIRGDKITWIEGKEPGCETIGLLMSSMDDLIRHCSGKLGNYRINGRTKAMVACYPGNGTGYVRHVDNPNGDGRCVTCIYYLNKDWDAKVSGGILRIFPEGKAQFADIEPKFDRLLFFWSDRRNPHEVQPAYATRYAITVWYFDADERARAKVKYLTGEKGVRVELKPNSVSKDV

For `O=C(O)CNC(=O)C1=C(O)CC2(CCC2)N(Cc2ccc(-c3ccccc3)cc2)C1=O`, the fraction unbound at 4 h, 1 ug/ml [1] was 0.005, the metabolised at 1 h, 1 µM [2] was 13% and the fraction unbound at 4 h, 1 ug/ml [3] was < 0.006.

For `CC1CN(Cc2ccc(-c3ccccc3)cc2)C(=O)C(C(=O)NCC(=O)O)=C1O` (centres undefined), the fraction unbound at 4 h, 1 ug/ml [1] was < 0.005, the metabolised at 1 h, 1 µM [2] was 6% and the fraction unbound at 4 h, 1 ug/ml [3] was < 0.005.

With `O=C([O-])CNC(=O)C1=C(O)CCN(Cc2ccc(OCCC3CC3)nc2)C1=O.[Na+]` the “serum EPO level” value (Mus musculus [4]) was 7530 pg/mL and the half-life [5] was 0.42 h.

For `O=C(O)CNC(=O)C1=C(O)CCN(Cc2ccc(Oc3ccc(Cl)cc3)nc2)C1=O`, the Tmax [6] was 0.25 h, the bioavailability [7] was 82.8% and the half-life [8] was 3.1 h. It also gave a Cmax [9] of 6980 ng/mL, a half-life [10] of 3.5 h and a bioavailability [11] of 52.8%. The Cmax [12] was 10700 ng/mL, the clearance [13] was 7.28 mL/min/kg and the Vd [14] was 0.231 L/kg. It also gave an IC50 (Egl nine homolog 1) of 18 nM, a half-life [15] of 2.3 h and an Activity (Rattus norvegicus [16]) of 3003 pg/mL. The Vd [17] was 0.904 L/kg, the clearance [18] was 3.28 mL/min/kg and the Tmax [19] was 0.75 h. For the same compound, the half-life [20] was 4.7 h and the half-life [5] was 1.5 h.

In the case of `O=C([O-])CNC(=O)C1=C(O)CCN(Cc2ccc(OCCC3CC3)cn2)C1=O.[Na+]`, the “serum EPO level” value (Mus musculus [4]) is reported as 471 pg/mL.

For `Cc1ccc(Oc2ccc(CN3CCC(O)=C(C(=O)NCC(=O)[O-])C3=O)nc2)cc1.[Na+]`, the “serum EPO level” value (Mus musculus [4]) was 1488 pg/mL.

In the case of `Cc1nc(C(=O)NCC(=O)O)c(O)c2ccc(Oc3ccccc3)cc12` [ROXADUSTAT], the “beta t1/2” value (Homo sapiens) is reported as 13 h.

In the case of `Cc1ccc(Oc2ccc(CN3CCC(O)=C(C(=O)NCC(=O)O)C3=O)cn2)cc1`, the “serum EPO level” value (Mus musculus [4]) is reported as 3497 pg/mL and the half-life [5] is reported as 0.72 h.

In the case of `O=C([O-])CNC(=O)C1=C(O)CCN(Cc2ccc(Oc3ccc(Cl)cc3)nc2)C1=O.[Na+]`, the fraction unbound at 8 h, 0.3 ug/ml [21] is reported as 0.009, the metabolised at 4 h, 1 µM [22] is reported as -0.3% and the “serum EPO level” value (Mus musculus [4]) is reported as 8371 pg/mL. It also gave a fraction unbound at 8 h, 0.3 ug/ml [23] of 0.011, a metabolised at 4 h, 1 µM [24] of 5.7% and a metabolised at 4 h, 1 µM [25] of 0.9%. The fraction unbound at 8 h, 0.3 ug/ml [26] was 0.011.

In the case of `O=C(O)CNC(=O)c1ncc(-c2cccc(Cl)c2)cc1O` [VADADUSTAT], the half-life [27] is reported as 4.5 h.

For `O=C([O-])CNC(=O)C1=C(O)CCN(Cc2ccc(OCCC3CC3)cc2)C1=O.[Na+]`, the “serum EPO level” value (Mus musculus [4]) was 8163 pg/mL and the half-life [5] was 0.46 h.

For `O=C(O)CNC(=O)C1=C(O)CCN(Cc2ccc(OCC3CC3)cc2)C1=O`, the “serum EPO level” value (Mus musculus [4]) was 6258 pg/mL and the half-life [5] was 1.4 h.

For `Cc1ccc(Oc2ccc(CN3CCC(O)=C(C(=O)NCC(=O)O)C3=O)cc2)cc1`, the “serum EPO level” value (Mus musculus [4]) was 4441 pg/mL and the half-life [5] was 0.52 h.

In the case of `O=C(O)CNC(=O)C1=C(O)CC2(CCCCC2)N(Cc2ccc(-c3ccccc3)cc2)C1=O`, the fraction unbound at 4 h, 1 ug/ml [1] is reported as < 0.006, the Activity (Rattus norvegicus [28]) is reported as “inactive” and the Activity (Mus musculus [29]) is reported as 2323 pg/mL. The metabolised at 1 h, 1 µM [2] was 31.3% and the fraction unbound at 4 h, 1 ug/ml [3] was < 0.006.

In the case of `O=C(O)CNC(=O)C1=C(O)CCN(Cc2ccc(C(F)(F)F)cc2)C1=O`, the half-life [5] is reported as 4.9 h.

With `O=C(O)CNC(=O)C1C(=O)N(C2CCCCC2)C(=O)N(C2CCCCC2)C1=O` [DAPRODUSTAT] the half-life [27] was 2.7 h.

For `O=C(O)CNC(=O)C1=C(O)CCN(Cc2ccc(-c3ccccc3)cc2)C1=O`, the fraction unbound at 4 h, 1 ug/ml [1] was 0.011, the metabolised at 1 h, 1 µM [2] was 34.4% and the fraction unbound at 4 h, 1 ug/ml [3] was 0.007.

In the case of `CC1CC(O)=C(C(=O)NCC(=O)O)C(=O)N1Cc1ccc(-c2ccccc2)cc1` (centres undefined), the fraction unbound at 4 h, 1 ug/ml [1] is reported as < 0.006, the metabolised at 1 h, 1 µM [2] is reported as 3.8% and the fraction unbound at 4 h, 1 ug/ml [3] is reported as < 0.006.

Compound `O=C([O-])CNC(=O)C1=C(O)CCN(Cc2ccc(OC3CC3)cc2)C1=O.[Na+]` has a half-life [5] of 0.55 h.

`O=C(O)CNC(=O)C1=C(O)CCN(Cc2ccc(OC(F)(F)F)cc2)C1=O` showed a half-life [5] of 2.8 h.

From ChEMBL document CHEMBL4118138, “Discovery of novel 2-[(4-hydroxy-6-oxo-2,3-dihydro-1H-pyridine-5-carbonyl)amino]acetic acid derivatives as HIF prolyl hydroxylase inhibitors for treatment of renal anemia” (Bioorg Med Chem Lett, 2018)
